pIC50: −log10 of the molar value.
Experiments:
[1] = molecular target: CDK2/Cyclin E1(14-475) (Homo sapiens, UniProt P24941); experiment: Caliper LabChip EZ Reader mobility shift assay, inhibition of CDK2/Cyclin E1 activity; type: biochemical; conditions: class symbols A-D
Method: Inhibition of CDK2/Cyclin E1 activity in the presence of compounds of the present disclosure was evaluated using a Caliper LabChip® EZ Reader mobility shift assay. In the assay, activated CDK2/Cyclin E1 catalyzes the phosphorylation of a fluorescently tagged peptide 5-FAM-QSPKKG-CONH2 (PerkinElmer, FL Peptide 18) which induces a difference in capillary electrophoresis mobility. The peptide substrate and product were measured, and the conversion ratio was used to determine the inhibition (as % activity and IC50 values) of CDK2/Cyclin E1. Reactions contained 50 mM HEPES pH 7.5, 10 mM MgCl2, 1 mM EDTA, 2 mM DTT, 0.01% Brij35, 0.5 mg/mL BSA, 0.1% DMSO, 2.5 nM CDK2/Cyclin E1(14-475), 100 μM ATP, and 1.5 μM fluorescent peptide substrate.
Dose titrations of inhibitors in 100% DMSO were combined with 3.25 nM CDK2/Cyclin E1(14-475) and 130 μM of ATP in reaction buffer. The mixtures were incubated for 30 minutes before the addition of fluorescent peptide substrate to initiate the kinase reaction. The final conditions were 2.5 nM CDK2/Cyclin E1(14-475), 100 μM ATP, and 1.5 μM fluorescent peptide. The reactions were stopped after 100 minutes with the addition of EDTA (6 mM final EDTA concentration). The stopped reactions were analyzed on a Caliper LabChip® EZ Reader II. The conversion ratios were normalized to yield % activity, plotted against compound concentration, and fit to a four-parameter equation to determine the IC50 for each compound.

[2] = test system: Kuramochi cells; experiment: BrdU cell proliferation assay (colorimetric ELISA), Kuramochi cells; type: cell-based; conditions: class symbols A-D
Method: A BrdU assay was used as a measure of proliferation based on the DNA replication process of proliferating cells. BrdU, a pyrimidine analog, is added to the cell culture and incorporated into the DNA of proliferating cells. The presence of the BrdU analog was then measured through a colorimetric ELISA. After fixation and permeabilization of cells, peroxidase-conjugated antibody recognizing BrdU is added and allowed to incubate, followed by thorough washing to remove unbound antibody. In order to quantify the amount of bound antibody, peroxidase substrate is added and produces a color that can be measured at 450 nm.
On day −1, Kuramochi cells (Sekisui XenoTech JCRB0098) were seeded at 2,000 cells/well in columns 2-12 of a 96 well plate (Corning, CLS3596) in 150 uL media and allowed to adhere overnight at 37 degree with 5% CO2. In order to assess specificity of the compounds, Kuramochi RB^KO cells were also plated and treated, as RB^KO cells were not expected to show a proliferative response to CCNE/CDK specific inhibitors.
On day 0, the source plate was prepared by adding 10 mM compounds and performing 3-fold serial dilutions for a 4-point dose response of each compound. Using a multichannel pipette, 2 uL of the contents of the source plate were stamped into an intermediate plate with 500 uL of RPMI 1640 Media, GlutaMAX Supplement (Life Technologies, 61870127) in each well of a Nunc 96 DeepWell™ plate, non-treated 96 DeepWell plate, 2 mL/well, sterile, natural, 60/cs (Sigma Z717274) and mixed thoroughly. 50 uL from row A of this intermediate plate were added to rows A-H of one plate of previously seeded Kuramochi cells, and each subsequent row of the intermediate plate was added to a full plate of cells.
On day 4, the plates were developed using the BrdU ELISA Cell Proliferation Assay according to manufacturer's instructions (Roche, 11647229001). Briefly, BrdU was diluted 1:100 in Gibco®, Opti-MEM® and 20 μL/well was added, shaken for 10 minutes at 350 rpm, and then returned to the incubator for 1 hour. Following incubation, the medium was discarded, and the cells were fixed by adding 200 μL of Fix/Denature solution. The anti-BrdU peroxidase antibody was diluted 1:1000 in OptiMEM, added at 100 μL/well, and incubated while shaking (350 rpm) for one hour. Three washes with PBS were performed to remove any unbound antibody, followed by the addition of 100 μL of substrate solution to each well. […] was then added to halt the reaction, and plates were read out using an Envision spectrophotometer (Perkin Elmer) set to read 450 nm absorbance. Background absorbance values from empty wells were subtracted from all samples and then normalized to DMSO treated wells.

Compound	pIC50 [1]	pIC50 [2]
CNC(=O)[C@H](CCCc1ccccc1)NC(=O)C1CN(C(=O)Cc2c[nH]c3cc(Cl)ccc23)CC2CN(C(=O)c3nn(C)c4ccccc34)CC21 (some centres unmarked) [I-47]	< 5.00	< 5.00
CNC(=O)[C@H](CCCc1ccccc1)NC(=O)C1CN(C(=O)Cc2c[nH]c3cc(Cl)ccc23)CC2CN(C(=O)c3c4ccccc4nn3C)CC21 (some centres unmarked) [I-48]	< 5.00	< 5.00
CNC(=O)[C@H](CCCc1ccccc1)NC(=O)C1CN(C(=O)Cc2c[nH]c3cc(Cl)ccc23)CC2CN(C(=O)c3ccc(CC(C)C)cc3)CC21 (some centres unmarked) [I-52]	5.00 to 5.30	< 5.00
CNC(=O)[C@H](CCCc1ccccc1)NC(=O)C1CN(C(=O)Cc2c[nH]c3cc(Cl)ccc23)CC2CN(C(=O)c3ccc(NC(=O)C4CC4)c(OC)c3)CC21 (some centres unmarked) [I-54]	< 5.00	< 5.00
CNC(=O)[C@H](CCCc1ccccc1)NC(=O)C1CN(C(=O)Cc2c[nH]c3cc(Cl)ccc23)CC2CN(C(=O)c3cnn(C)c3)CC21 (some centres unmarked) [I-55]	< 5.00	< 5.00
CNC(=O)[C@H](CCCc1ccccc1)NC(=O)C1CN(C(=O)Cc2c[nH]c3cc(Cl)ccc23)CC2CN(C(=O)c3cc(C)[nH]n3)CC21 (some centres unmarked) [I-56]	5.30 to 6.30	< 5.00
CNC(=O)[C@H](CCCc1ccccc1)NC(=O)C1CN(C(=O)Cc2c[nH]c3cc(Cl)ccc23)CC2CN(C(=O)c3ncccn3)CC21 (some centres unmarked) [I-57]	< 5.00	< 5.00
CCc1ccc(C(=O)N2CC3CN(C(=O)Cc4c[nH]c5cc(Cl)ccc45)CC(C(=O)N[C@@H](CCCc4ccccc4)C(=O)NC)C3C2)nc1 (some centres unmarked) [I-58]	< 5.00	< 5.00
CNC(=O)[C@H](CCCc1ccccc1)NC(=O)C1CN(C(=O)Cc2c[nH]c3cc(Cl)ccc23)CC2CN(C(=O)c3ccc(-c4cncnc4)cc3)CC21 (some centres unmarked) [I-59]	< 5.00	< 5.00
CNC(=O)[C@H](CCCc1ccccc1)NC(=O)C1CN(C(=O)Cc2c[nH]c3cc(Cl)ccc23)CC2CN(C(=O)c3cncc(C)n3)CC21 (some centres unmarked) [I-60]	< 5.00	< 5.00
CNC(=O)[C@H](CCCc1ccccc1)NC(=O)C1CN(C(=O)Cc2c[nH]c3cc(Cl)ccc23)CC2CN(C(=O)c3cc4ccccc4[nH]3)CC21 (some centres unmarked) [I-61]	< 5.00	< 5.00
CNC(=O)[C@H](CCCc1ccccc1)NC(=O)C1CN(C(=O)Cc2c[nH]c3cc(Cl)ccc23)CC2CN(C(=O)c3ccc4c(N)n[nH]c4c3)CC21 (some centres unmarked) [I-65]	< 5.00	< 5.00
CNC(=O)[C@H](CCCc1ccccc1)NC(=O)C1CN(C(=O)Cc2c[nH]c3cc(Cl)ccc23)CC2CN(C(=O)c3ccc(NS(C)(=O)=O)c(OC)c3)CC21 (some centres unmarked) [I-66]	< 5.00	< 5.00
CNC(=O)[C@H](CCCc1ccccc1)NC(=O)C1CN(C(=O)Cc2c[nH]c3cc(Cl)ccc23)CC2CN(C(=O)c3ccc(NC(=O)CC4CC4)c(OC)c3)CC21 (some centres unmarked) [I-69]	< 5.00	< 5.00
CNC(=O)[C@H](CCCc1ccccc1)NC(=O)C1CN(C(=O)Cc2c[nH]c3cc(Cl)ccc23)CC2CN(C(=O)c3cnc(-c4ccccc4)s3)CC21 (some centres unmarked) [I-70]	< 5.00	< 5.00
CNC(=O)[C@H](CCCc1ccccc1)NC(=O)C1CN(C(=O)Cc2c[nH]c3cc(Cl)ccc23)CC2CN(C(=O)c3cc(-c4ccccc4)n(C)n3)CC21 (some centres unmarked) [I-71]	< 5.00	< 5.00
CNC(=O)[C@H](CCCc1ccccc1)NC(=O)C1CN(C(=O)Cc2c[nH]c3cc(Cl)ccc23)CC2CN(C(=O)c3ccc4[nH]c(=O)oc4c3)CC21 (some centres unmarked) [I-72]	< 5.00	< 5.00

Compound	pIC50 [1]	pIC50 [2]
CNC(=O)[C@H](CCCc1ccccc1)NC(=O)C1CN(C(=O)Cc2c[nH]c3cc(Cl)ccc23)CC2CN(C(=O)c3ccc4c(c3)oc(=O)n4C)CC21 (some centres unmarked) [I-73]	< 5.00	< 5.00
CNC(=O)[C@H](CCCc1ccccc1)NC(=O)C1CN(C(=O)Cc2c[nH]c3cc(Cl)ccc23)CC2CN(C(=O)c3c[nH]c(-c4ccccc4)n3)CC21 (some centres unmarked) [I-74]	< 5.00	< 5.00
CNC(=O)[C@H](CCCc1ccccc1)NC(=O)C1CN(C(=O)Cc2c[nH]c3cc(Cl)ccc23)CC2CN(C(=O)c3ccc4oc(=O)[nH]c4c3)CC21 (some centres unmarked) [I-75]	< 5.00	< 5.00
CNC(=O)[C@H](CCCc1ccccc1)NC(=O)C1CN(C(=O)Cc2c[nH]c3cc(Cl)ccc23)CC2CN(C(=O)c3ccc(C)cn3)CC21 (some centres unmarked) [I-78]	< 5.00	< 5.00
CNC(=O)[C@H](CCCc1ccccc1)NC(=O)C1CN(C(=O)Cc2c[nH]c3cc(Cl)ccc23)CC2CN(C(=O)c3ccc(-c4cccnc4)cc3)CC21 (some centres unmarked) [I-79]	5.00 to 5.30	< 5.00
CNC(=O)[C@H](CCCc1ccccc1)NC(=O)C1CN(C(=O)Cc2c[nH]c3cc(Cl)ccc23)CC2CN(C(=O)c3ccc4cccnc4c3)CC21 (some centres unmarked) [I-80]	< 5.00	< 5.00
CNC(=O)[C@H](CCCc1ccccc1)NC(=O)C1CN(C(=O)Cc2c[nH]c3cc(Cl)ccc23)CC2CN(C(=O)c3ccc(OC(F)(F)F)c(OC)c3)CC21 (some centres unmarked) [I-82]	5.30 to 6.30	5.00 to 5.30
CNC(=O)[C@H](CCCc1ccccc1)NC(=O)C1CN(C(=O)Cc2c[nH]c3cc(Cl)ccc23)CC2CN(C(=O)c3cc4c(c(OC)c3)OC(C)(C)C4)CC21 (some centres unmarked) [I-83]	≥ 6.30	< 5.00
CNC(=O)[C@H](CCCc1ccccc1)NC(=O)C1CN(C(=O)Cc2c[nH]c3cc(Cl)ccc23)CC2CN(C(=O)c3ccc4c(c3)c(OC)nn4C(C)C)CC21 (some centres unmarked) [I-84]	5.30 to 6.30	< 5.00
CNC(=O)[C@H](CCCc1ccccc1)NC(=O)C1CN(C(=O)Cc2c[nH]c3cc(Cl)ccc23)CC2CN(C(=O)c3ccc(OC(C)C)c4occc34)CC21 (some centres unmarked) [I-85]	≥ 6.30	< 5.00
COc1cc(C(=O)N2CC3CN(C(=O)Cc4c[nH]c5cc(Cl)ccc45)CC(C(=O)N[C@@H]4CCCN(Cc5ccccc5)C4)C3C2)ccc1OC(C)C (stereo partly drawn) [I-88, N—((R)-1-benzylpiperidin-3-yl)-5-(2-(6-chloro-1H-indol-3-yl)acetyl)-2-(4-isopropoxy-3-methoxybenzoyl)octahydro-1H-pyrrolo[3,4-c]pyridine-7-carboxamide]	< 5.00	< 5.00
COc1cc(C(=O)N2CC3CN(C(=O)Cc4c[nH]c5cc(Cl)ccc45)CC(C(=O)NC4CCCN(C(=O)c5ccccc5)C4)C3C2)ccc1OC(C)C (centres unmarked) [I-89]	< 5.00	< 5.00
COc1cc(C(=O)N2CC3CN(C(=O)Cc4c[nH]c5cc(Cl)ccc45)CC(C(=O)NC4CCCN(C(=O)Cc5ccccc5)C4)C3C2)ccc1OC(C)C (centres unmarked) [I-90]	< 5.00	< 5.00
CNC(=O)[C@H](CCCc1ccccn1)NC(=O)C1CN(C(=O)Cc2c[nH]c3cc(Cl)ccc23)CC2CN(C(=O)c3ccc(OC(C)C)c(OC)c3)CC21 (some centres unmarked) [I-91]	5.30 to 6.30	< 5.00
CNC(=O)[C@H](NC(=O)C1CN(C(=O)Cc2c[nH]c3cc(Cl)ccc23)CC2CN(C(=O)c3ccc(OC(C)C)c(OC)c3)CC21)[C@@H](C)OCc1ccccc1 (some centres unmarked) [I-92]	< 5.00	< 5.00
CNC(=O)C(CCCC1CCCC1)NC(=O)C1CN(C(=O)Cc2c[nH]c3cc(Cl)ccc23)CC2CN(C(=O)c3ccc(OC(C)C)c(OC)c3)CC21 (centres unmarked) [I-93]	5.30 to 6.30	< 5.00
CNC(=O)[C@H](CCCC1CCC(C(F)(F)F)CC1)NC(=O)C1CN(C(=O)Cc2c[nH]c3cc(Cl)ccc23)CC2CN(C(=O)c3ccc(OC(C)C)c(OC)c3)CC21 (some centres unmarked) [I-94]	< 5.00	< 5.00

— patent US12053459B2, “CDK2 inhibitors and methods of using the same” (Cedilla Therapeutics, Inc., priority 2021, dated 2024)
